Measured values from article PMC8634879, “Design, Synthesis, and Biological Evaluation of Pyrano[2,3-c]-pyrazole–Based RalA Inhibitors Against Hepatocellular Carcinoma” (Frontiers in Chemistry, 2021).
Like-named read-outs stand apart in the source and are kept apart here.

What was measured:
[1] = target: T1, RalA (Homo sapiens, UniProt P11233); test: ELISA-based RalA activity assay (RalBP1-coated plates, lysates of compound-treated cells); assay type: biochemical; details: for remaining activity at 1 µM: 1 μM compound, % control = activity remained; for IC50: enzymatic inhibition, average of at least three independent replicates ± SD, read-out: Kinase activities (IC50, μM) RalA
T1 construct: expressed in transfected cells; host or cells: HepG2 (from b6; the methods paragraph names no cell line)
T1 sequence (P11233 1-203 limits assumed): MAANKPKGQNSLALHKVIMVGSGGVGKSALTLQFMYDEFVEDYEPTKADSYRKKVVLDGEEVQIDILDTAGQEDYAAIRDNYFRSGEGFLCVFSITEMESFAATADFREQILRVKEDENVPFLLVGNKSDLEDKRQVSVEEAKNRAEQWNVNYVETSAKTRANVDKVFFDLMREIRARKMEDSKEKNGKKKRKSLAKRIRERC
Procedure: (§1) The in vitro RalA/B bioactivity assays were performed following methods outlined in previous reports. ([Yan et al., 2016]; [Zhang et al., 2018]; [Walsh et al., 2019]; [Bum-Erdene et al., 2020]). In brief, the lysates of the test compound or vehicle-treated cells were cleared using cold centrifugation, and supernatants were collected. An RalBP1 solution was added to 96-well plates and incubated for 1–2 h, and then the plates were washed thrice using ELISA buffer. Next, cellular lysates were added, and samples were incubated overnight at 4°C. Then, ice-cold mouse anti-FLAG antibody was added, and samples were incubated for one more hour. After subsequent washing with ELISA buffer thrice, the HRP-conjugated anti-mouse antibody was added, and samples were incubated for another hour. Then, the HRP substrate was added. Antigen–antibody reactions were quenched by the addition of sulfuric acid (2 mol/L). Remaining RalA/B was detected by the OD450 values which were collected by using a plate reader. Cell proliferation assays, colony formation assays, apoptosis assays, GST pulldown, and Western blotting were used following methods outlined in our previous reports. ([Zhou et al., 2015]; [Zhang et al., 2016]; [Yang et al., 2017]; [He et al., 2019]). Autophagy levels and protein immunoblotting were used following the methods mentioned in our previous reports ([Pan et al., 2018]; [Wang et al., 2018]; [Hao et al., 2019]; [Wang et al., 2019]; [Peng et al., 2020]). Detailed experimental procedures are described in supporting materials.

[2] = target: T2, RalB (Homo sapiens, UniProt P11234); test: ELISA-based RalB activity assay (RalBP1-coated plates, lysates of compound-treated cells); assay type: biochemical; details: for remaining activity at 1 µM: 1 μM compound, % control = active (RalBP1-bound) RalB remaining; for IC50: enzymatic inhibition, average of at least three independent replicates ± SD, read-out: Kinase activities (IC50, μM) RalB
T2 construct: expressed in transfected cells; host or cells: HepG2 (from b6; the methods paragraph names no cell line)
T2 sequence (P11234 1-203 limits assumed): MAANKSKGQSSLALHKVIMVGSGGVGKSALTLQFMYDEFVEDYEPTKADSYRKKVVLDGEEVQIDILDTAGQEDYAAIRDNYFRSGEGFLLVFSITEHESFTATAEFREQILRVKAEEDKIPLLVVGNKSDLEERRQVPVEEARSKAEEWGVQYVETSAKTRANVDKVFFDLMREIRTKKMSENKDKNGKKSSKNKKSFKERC
Procedure: as §1

[3] = tested on: HepG2 cells; test: Cell proliferation assay (MTT), HepG2; assay type: cell-based; details: Homo sapiens
Procedure: (§2) The antibodies recognizing LC3, p62/SQSTM1, RalA, RalB, and GAPDH were purchased from Proteintech (Wuhan, China). HCC cell lines, including HepG2, Hep3B, Huh-7, and SMMC-7721, were obtained from the Chinese Center for Type Culture Collection (Wuhan, China) and cultured in DMEM (Dulbecco’s modified Eagle’s medium) with 10% FBS (fetal bovine serum) and streptomycin. Cytotoxicity assays were performed by using the MTT method as previously described.
as §1

[4] = tested on: Huh-7 cells; test: Cell proliferation assay (MTT), Huh-7; assay type: cell-based; details: Homo sapiens
Procedure: as §2, §1

[5] = tested on: Hep3B cells; test: Cell proliferation assay (MTT), Hep3B; assay type: cell-based; details: Homo sapiens, average of at least three independent replicates ± SD, read-out: Anti-proliferative activities (IC50, μM) Hep3B
Procedure: as §2, §1

[6] = tested on: SMMC-7721 cells; test: Cell proliferation assay (MTT), SMMC-7721; assay type: cell-based; details: Homo sapiens, average of at least three independent replicates ± SD, read-out: Anti-proliferative activities (IC50, μM) SMMC-7721
Procedure: as §2, §1

[7] = HepG2, Table 1, cell proliferation inhibition, read-out: IC50 (μM) HepG2
[8] = HepG2, Table 2, average of at least three independent replicates ± SD, read-out: Anti-proliferative activities (IC50, μM) HepG2
[9] = Table 1, cell proliferation inhibition, read-out: IC50 (μM) Huh7
[10] = Table 2, average of at least three independent replicates ± SD, read-out: Anti-proliferative activities (IC50, μM) Huh-7

SMILES | remaining activity at 1 µM [1] | IC50 [1] | remaining activity at 1 µM [2] | IC50 [2] | IC50 [3, 7] | IC50 [3, 8] | IC50 [4, 9] | IC50 [4, 10] | IC50 [5] | IC50 [6] | melting point
Cc1ccc(S(=O)(=O)NC2=C(C#N)C(c3cccnc3)c3c(C)nn(-c4ccccc4)c3O2)cc1 (stereo not shown) [4k, N-(5-cyano-3-methyl-1-phenyl-4-(pyridin-3-yl)-1,4-dihydropyrano[2,3-c]-pyrazol-6-yl)-4-methylbenzenesulfonamide] | 32% | 0.75 ± 0.09 µM | 38% | 1.09 ± 0.13 µM | 5.63 ± 0.58 µM | 5.63 ± 0.58 µM | 6.01 ± 0.57 µM | 6.01 ± 0.57 µM | > 10 µM | > 10 µM | 
Cc1ccc(S(=O)(=O)NC2=C(C#N)C(c3ccc(C(F)(F)F)cc3)c3c(C)nn(-c4ccccc4)c3O2)cc1 (stereo not shown) [4n, N-(5-cyano-3-methyl-1-phenyl-4-(4-(trifluoromethyl)phenyl)-1,4-dihydropyrano[2,3-c]-pyrazol-6-yl)-4-methylbenzenesulfonamide] | 46% | 1.81 ± 0.19 µM | 59% | 4.11 ± 0.45 µM | 8.46 ± 0.92 µM | 8.46 ± 0.92 µM | 9.58 ± 0.92 µM | 9.58 ± 0.92 µM | > 10 µM | > 10 µM | 109.3 to 110.2 °C
Cc1ccc(S(=O)(=O)NC2=C(C#N)C(c3ccsc3)c3c(C)nn(-c4ccccc4)c3O2)cc1 (stereo not shown) [4m, N-(5-cyano-3-methyl-1-phenyl-4-(thiophen-3-yl)-1,4-dihydropyrano[2,3-c]-pyrazol-6-yl)-4-methylbenzenesulfonamide] | 45% | 1.7 ± 0.22 µM | 58% | 3.86 ± 0.39 µM | 7.2 ± 0.65 µM | 9.15 µM | > 10 µM | > 10 µM | 9.84 ± 1.37 µM | 9.6 ± 1.05 µM | 67.8 to 68.4 °C
Cc1nn(-c2ccccc2)c2c1C(c1ccc(C(F)(F)F)cc1)C(C#N)=C(NS(=O)(=O)c1ccc(C(F)(F)F)cc1)O2 (stereo not shown) [4q, N-(5-cyano-3-methyl-1-phenyl-4-(4-(trifluoromethyl)phenyl)-1,4-dihydropyrano[2,3-c]-pyrazol-6-yl)-4-(trifluoromethyl)-benzenesulfonamide] | 37% | 1.02 ± 0.09 µM | 39% | 1.16 ± 0.19 µM | 8.65 ± 0.97 µM | 8.65 ± 0.97 µM | 8.42 ± 0.94 µM | 8.42 ± 0.94 µM | 7.76 ± 1 µM | > 10 µM | 153.7 to 154.1 °C
Cc1ccc(S(=O)(=O)NC2=C(C#N)C(c3ccncc3)c3c(C)nn(-c4ccccc4)c3O2)cc1 (stereo not shown) [4l, N-(5-cyano-3-methyl-1-phenyl-4-(pyridin-4-yl)-1,4-dihydropyrano[2,3-c]-pyrazol-6-yl)-4-methylbenzenesulfonamide] | 40% | 1.24 ± 0.15 µM | 52% | 2.64 ± 0.3 µM | 9.2 ± 0.89 µM | 6.01 µM | 9.15 ± 1.04 µM | 9.15 ± 1.04 µM | 4.39 ± 0.57 µM | 5.94 ± 0.77 µM | 100.5 to 101.1 °C
Cc1ccc(S(=O)(=O)NC2=C(C#N)C(c3ccc(Br)cc3F)c3c(C)nn(-c4ccccc4)c3O2)cc1 (stereo not shown) [4h, N-(4-(4-bromo-2-fluorophenyl)-5-cyano-3-methyl-1-phen-yl-1,4-dihydropyrano[2,3-c]-pyrazol-6-yl)-4-methylbenzenesulfonamide] | 70% |  | 83% |  | > 10 µM |  | > 10 µM |  |  |  | 73.6 to 77.4 °C
Cc1ccc(S(=O)(=O)NC2=C(C#N)C(c3ccco3)c3c(C)nn(-c4ccccc4Cl)c3O2)cc1 (stereo not shown) [4s, N-(1-(2-chlorophenyl)-5-cyano-4-(furan-2-yl)-3-methyl-1,4-dihydropyrano[2,3-c]-pyrazol-6-yl)-4-methylbenzenesulfonamide] | 48% |  | 72% |  | 9.89 ± 0.81 µM |  | > 10 µM |  |  |  | 62.5 to 63.9 °C
Cc1nn(-c2ccccc2)c2c1C(c1ccc(C(F)(F)F)cc1)C(C#N)=C(NS(=O)(=O)c1ccc(F)cc1F)O2 (stereo not shown) [4r, N-(5-cyano-3-methyl-1-phenyl-4-(4-(trifluoromethyl)phenyl)-1,4-dihydropyrano[2,3-c]-pyrazol-6-yl)-2,4-difluorobenzenesulfonamide] | 30% | 0.66 ± 0.08 µM | 43% | 1.49 ± 0.22 µM | 7.56 ± 0.92 µM | 7.56 ± 0.92 µM | 7.39 ± 0.85 µM | 7.39 ± 0.85 µM | 8.3 ± 0.66 µM | > 10 µM | 65.8 to 66.5 °C
Cc1ccc(S(=O)(=O)NC2=C(C#N)C(c3cccc(Cl)c3)c3c(C)nn(-c4ccccc4)c3O2)cc1 (stereo not shown) [4c, N-(4-(3-chlorophenyl)-5-cyano-3-methyl-1-phenyl-1,4-dihydropyrano[2,3-c]-pyrazol-6-yl)-4-methylbenzenesulfonamide] | 40% |  | 69% |  | 7.28 ± 0.64 µM |  | > 10 µM |  |  |  | 68.4 to 69 °C
Cc1ccc(S(=O)(=O)NC2=C(C#N)C(c3ccccc3)c3c(C)nn(-c4ccc(Cl)cc4)c3O2)cc1 (stereo not shown) [4ac, N-(1-(4-chlorophenyl)-5-cyano-3-methyl-4-phenyl-1,4-dihydropyrano[2,3-c]-pyrazol-6-yl)-4-methylbenzenesulfonamide] | 67% |  | 68% |  | > 10 µM |  | > 10 µM |  |  |  | 181.4 to 181.7 °C
COc1cccc(C2C(C#N)=C(NS(=O)(=O)c3ccccc3)Oc3c2c(C)nn3-c2ccccc2Cl)c1 (stereo not shown) [4x, N-(1-(2-chlorophenyl)-5-cyano-4-(3-methoxyphenyl)-3-methyl-1,4-dihydropyrano[2,3-c]-pyrazol-6-yl)benzenesulfonamide] | 59% |  | 58% |  | > 10 µM |  | 8.93 ± 1.02 µM |  |  |  | 66 to 67.5 °C
Cc1ccc(C2C(C#N)=C(NS(=O)(=O)c3ccc(C)cc3)Oc3c2c(C)nn3-c2ccccc2)cc1 (stereo not shown) [4b, N-(5-cyano-3-methyl-1-phenyl-4-(p-tolyl)-1,4-dihydropyrano[2,3-c]-pyrazol-6-yl)-4-methylbenzenesulfonamide] | 75% |  | 105% |  | > 10 µM |  | > 10 µM |  |  |  | 74.7 to 75 °C
Cc1nn(-c2ccccc2)c2c1C(c1ccc(C(F)(F)F)cc1)C(C#N)=C(NS(=O)(=O)c1cccs1)O2 (stereo not shown) [4o, N-(5-cyano-3-methyl-1-phenyl-4-(4-(trifluoromethyl)phenyl)-1,4-dihydropyrano[2,3-c]-pyrazol-6-yl)thiophene-2-sulfonamide] | 36% | 0.96 ± 0.12 µM | 47% | 1.93 ± 0.26 µM | 5.32 ± 0.61 µM | 5.32 ± 0.61 µM | > 10 µM | > 10 µM | 7.69 ± 0.84 µM | > 10 µM | 55.9 to 56.7 °C
